Source: patent US10138260B2, “Compounds of phosphinanes and azaphosphinanes, a process for their preparation and pharmaceutical compositions containing them” (LES LABORATOIRES SERVIER, priority 2016, dated 2018)

Molecular target: T1, TAFIa (Homo sapiens, UniProt Q96IY4)
T1 sequence (Q96IY4 115-423): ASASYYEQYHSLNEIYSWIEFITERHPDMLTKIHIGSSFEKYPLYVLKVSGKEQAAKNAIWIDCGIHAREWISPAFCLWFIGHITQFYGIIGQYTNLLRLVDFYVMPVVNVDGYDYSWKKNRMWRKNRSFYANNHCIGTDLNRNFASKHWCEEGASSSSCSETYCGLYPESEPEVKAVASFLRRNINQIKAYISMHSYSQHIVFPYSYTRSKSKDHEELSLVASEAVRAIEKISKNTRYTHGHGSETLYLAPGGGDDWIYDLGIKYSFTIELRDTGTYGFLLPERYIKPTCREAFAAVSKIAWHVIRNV
Assay: Inhibition of TAFIa (hippuryl-Arg test)
Type: biochemical
Settings: TAFIa 2 nM, hippuryl-arginine 5 mM, 45 minutes, relative to control containing the carrier; for inhibition at 0.01 µM: compound at 10 nM; for inhibition at 0.02 µM: compound at 20 nM
Experimental: Human TAFI (4 nM) is incubated with human thrombin (10 nM) and human thrombomodulin (5 nM) in the presence of calcium (10 mM). After incubation for 20 minutes, the activation reaction is stopped by addition of PPACK (1 μM final), an irreversible thrombin inhibitor.
The reactions take place in Hepes buffer (25 mM Hepes, 137 mM NaCl, 3.5 mM KCl)+0.1% bovine albumin, pH 7.4 at 28° C. and with stirring.
The test compound is added to the solution of TAFIa (2 nM) and incubated for 45 minutes in the presence of hippuryl-arginine (5 mM). The reaction is stopped by addition of hydrochloric acid (1M) neutralised subsequently with sodium hydroxide (1M), and then the mixture is buffered with disodium hydroxyphosphate (1M pH 7.4). […] The reaction mixture is stirred (vortex) and then centrifuged. The supernatant is transferred to a 96-well microplate, and the absorbance is measured using a spectrophotometer at 405 nm (Spectramax plus, Molecular Devices).
The OD value of a well containing the reagents without TAFI is subtracted from all the OD values measured. The percentage inhibition of TAFIa at a given concentration of the test compound is determined by means of the following formula: % inhibition=100−[(OD compound×100)/OD carrier]
The compounds are evaluated at 10 nM and 20 nM under the experimental conditions described above and the results are expressed as the percentage inhibition relative to a control containing the carrier in the absence of compound.

inhibition at 0.01 µM [%]	inhibition at 0.02 µM [%]	SMILES
66	83	NCCCC[C@@]1(C(=O)O)CN(Cc2ccc(O)cc2-c2ccccc2)CCP1(=O)O [Example 191, (3S)-3-(4-AMINOBUTYL)-4-HYDROXY-1-[(4-HYDROXY-2-PHENYLPHENYL)-METHYL]-4-OXO-1,4-AZAPHOSPHINANE-3-CARBOXYLIC ACID]
25	29	NCCCCC1(C(=O)O)CN(Cc2ccccc2-c2nccs2)CCP1(=O)O (stereo not drawn) [Example 108, 3-(4-AMINOBUTYL)-4-HYDROXY-4-OXO-1-[[2-(1,3-THIAZOL-2-YL)PHENYL]-METHYL]-1,4-AZAPHOSPHINANE-3-CARBOXYLIC ACID]
64	86	Cc1ccc(-c2ccccc2CN2CCP(=O)(O)[C@](CCCCN)(C(=O)O)C2)cc1 [Example 188, (3S)-3-(4-AMINOBUTYL)-4-HYDROXY-1-[[2-(4-METHYLPHENYL)PHENYL]-METHYL]-4-OXO-1,4-AZAPHOSPHINANE-3-CARBOXYLIC ACID]
75	89	COc1cc(-c2ccccc2CN2CCP(=O)(O)[C@](CCCCN)(C(=O)O)C2)ccn1 [Example 203, (3S)-3-(4-AMINOBUTYL)-4-HYDROXY-1-[[2-(2-METHOXYPYRIDIN-4-YL)PHENYL]METHYL]-4-OXO-1,4-AZAPHOSPHINANE-3-CARBOXYLIC ACID]
58	71	NCCCCC1(C(=O)O)CN(Cc2ccccc2-c2cccc3ccccc23)CCP1(=O)O (stereo not drawn) [Example 109, 3-(4-AMINOBUTYL)-4-HYDROXY-1-[(2-NAPHTHALEN-1-YLPHENYL)METHYL]-4-OXO-1,4-AZAPHOSPHINANE-3-CARBOXYLIC ACID]
82	91	NCCCC[C@@]1(C(=O)O)CN(Cc2ccc(F)cc2-c2ccc3ccccc3c2)CCP1(=O)O [Example 215, (3S)-3-(4-AMINOBUTYL)-1-[(4-FLUORO-2-NAPHTHALEN-2-YLPHENYL)METHYL]-4-HYDROXY-4-OXO-1,4-AZAPHOSPHINANE-3-CARBOXYLIC ACID]
74	87	NCCCC[C@@]1(C(=O)O)CN(Cc2ccccc2-c2cncc3ccccc23)CCP1(=O)O [Example 202, (3S)-3-(4-AMINOBUTYL)-4-HYDROXY-1-[(2-ISOQUINOLIN-4-YLPHENYL)-METHYL]-4-OXO-1,4-AZAPHOSPHINANE-3-CARBOXYLIC ACID]
60	78	NCCCC[C@@]1(C(=O)O)CN(Cc2ccccc2-c2ccc(F)cc2)CCP1(=O)O [Example 197, (3S)-3-(4-AMINOBUTYL)-1-[[2-(4-FLUOROPHENYL)PHENYL]METHYL]-4-HYDROXY-4-OXO-1,4-AZAPHOSPHINANE-3-CARBOXYLIC ACID]
66	87	NCCCCC1(C(=O)O)CN(Cc2ccccc2-c2ccc3c(c2)OCO3)CCP1(=O)O (stereo not drawn) [Example 164, 3-(4-AMINOBUTYL)-1-[[2-(1,3-BENZODIOXOL-5-YL)PHENYL]METHYL]-4-HYDROXY-4-OXO-1,4-AZAPHOSPHINANE-3-CARBOXYLIC ACID]
55	77	NCCCCC1(C(=O)O)CN(Cc2ccccc2-c2ccc(Cl)c(Cl)c2)CCP1(=O)O (stereo not drawn) [Example 175, 3-(4-AMINOBUTYL)-1-[[2-(3,4-DICHLOROPHENYL)PHENYL]METHYL]-4-HYDROXY-4-OXO-1,4-AZAPHOSPHINANE-3-CARBOXYLIC ACID]

More lines, now with the values behind:

SMILES	inhibition at 0.01 µM [%]	inhibition at 0.02 µM [%]
NCCCC[C@@]1(C(=O)O)CN(Cc2ccc(F)cc2-c2cccs2)CCP1(=O)O [Example 213, (3S)-3-(4-AMINOBUTYL)-1-[(4-FLUORO-2-THIOPHEN-2-YLPHENYL)METHYL]-4-HYDROXY-4-OXO-1,4-AZAPHOSPHINANE-3-CARBOXYLIC ACID]	83	92
NCCCC[C@@]1(C(=O)O)CN(Cc2ccc(F)cc2-c2cccc(O)c2)CCP1(=O)O [Example 238, (3S)-3-(4-AMINOBUTYL)-1-[[4-FLUORO-2-(3-HYDROXYPHENYL)PHENYL]-METHYL]-4-HYDROXY-4-OXO-1,4-AZAPHOSPHINANE-3-CARBOXYLIC ACID]	70	87
CC(C)(C)c1ccccc1CN1CCP(=O)(O)[C@](CCCCN)(C(=O)O)C1 [Example 200, (3S)-3-(4-AMINOBUTYL)-1-[(2-TERT-BUTYLPHENYL)METHYL]-4-HYDROXY-4-OXO-1,4-AZAPHOSPHINANE-3-CARBOXYLIC ACID]	28	46
Cc1ccc(-c2cc(F)ccc2CN2CCP(=O)(O)[C@](CCCCN)(C(=O)O)C2)cc1 [Example 180, (3S)-3-(4-AMINOBUTYL)-1-[[4-FLUORO-2-(4-METHYLPHENYL)PHENYL]-METHYL]-4-HYDROXY-4-OXO-1,4-AZAPHOSPHINANE-3-CARBOXYLIC ACID]	54	73
NCCCC[C@@]1(C(=O)O)CN(Cc2ccc(F)cc2-c2ccc(Cl)cc2)CCP1(=O)O [Example 198, (3S)-3-(4-AMINOBUTYL)-1-[[2-(4-CHLOROPHENYL)-4-FLUOROPHENYL]METHYL]-4-HYDROXY-4-OXO-1,4-AZAPHOSPHINANE-3-CARBOXYLIC ACID]	72	91
NCCCC[C@@]1(C(=O)O)CN(Cc2ccc(Cl)cc2-c2ccc(F)cc2)CCP1(=O)O [Example 210, (3S)-3-(4-AMINOBUTYL)-1-[[4-CHLORO-2-(4-FLUOROPHENYL)PHENYL]METHYL]-4-HYDROXY-4-OXO-1,4-AZAPHOSPHINANE-3-CARBOXYLIC ACID]	71	79
NCCCC[C@@]1(C(=O)O)CN(Cc2ccc(O)cc2-c2ccncc2)CCP1(=O)O [Example 225, (3S)-3-(4-AMINOBUTYL)-4-HYDROXY-1-[(4-HYDROXY-2-PYRIDIN-4-YLPHENYL)METHYL]-4-OXO-1,4-AZAPHOSPHINANE-3-CARBOXYLIC ACID]	76	85
COc1ccc(-c2cc(F)ccc2CN2CCP(=O)(O)[C@](CCCCN)(C(=O)O)C2)cc1OC [Example 179, (3S)-3-(4-AMINOBUTYL)-1-[[2-(3,4-DIMETHOXYPHENYL)-4-FLUOROPHENYL]-METHYL]-4-HYDROXY-4-OXO-1,4-AZAPHOSPHINANE-3-CARBOXYLIC ACID]	74	83
NCCCC[C@@]1(C(=O)O)CN(Cc2ccc(F)cc2-c2nccs2)CCP1(=O)O [Example 245, (3S)-3-(4-AMINOBUTYL)-1-[[4-FLUORO-2-(1,3-THIAZOL-2-YL)PHENYL]METHYL]-4-HYDROXY-4-OXO-1,4-AZAPHOSPHINANE-3-CARBOXYLIC ACID]	38	52
Cc1ncc(-c2cc(F)ccc2CN2CCP(=O)(O)[C@](CCCCN)(C(=O)O)C2)n1C [Example 219, (3S)-3-(4-AMINOBUTYL)-1-[2-(1,2-DIMETHYL-1H-IMIDAZOL-5-YL)-4-FLUOROBENZYL]-4-HYDROXY-4-OXO-1,4-AZAPHOSPHINANE-3-CARBOXYLIC ACID]	92	98
NCCCCC1(C(=O)O)CN(Cc2ccc(F)cc2-c2ccc(O)cc2)CCP1(=O)O (stereo not drawn) [Example 104, 3-(4-AMINOBUTYL)-1-[[4-FLUORO-2-(4-HYDROXYPHENYL)PHENYL]METHYL]-4-HYDROXY-4-OXO-1,4-AZAPHOSPHINANE-3-CARBOXYLIC ACID]	37	68
